“Also recorded” adds a separate entry of the source.
How the values were obtained:
HuAAT5 = assay: AAT enzyme assay with the purified HuAAT5 enzyme; format: biochemical, Helichrysum umbraculigerum; conditions: acyl donors acetyl-, iso-butyryl-, iso-valeryl- or hexanoyl-CoA, 30° C., 3 h, pH 7.4
Experimental: (§1) Selected AAT genes from Helichrysum were individually cloned into the pET28b vector and expressed in E. coli BL21 (DE3) cells. Bacterial cells were grown overnight in LB medium at 37° C., diluted in fresh LB 1:100, and re-incubated at 37° C. When cultures reached A600=0.6, protein expression was induced with 400 μM of isopropyl-1-thio-β-d-galactopyranoside (IPTG) overnight at 15° C. Bacterial cells were lysed by sonication in 50 mM Tris-HCl pH 8, 0.5 mM phenylmethylsulfonyl fluoride (PMSF, Sigma Aldrich) solution in isopropanol, 10% glycerol and protease inhibitor cocktail (Sigma Aldrich), and 1 mg ml-1 lysozyme (Sigma Aldrich). The whole-cell extract was either kept for functional activity or used for protein purification. Purification of proteins was performed on Ni-NTA agarose beads (Adar Biotech). The proteins were eluted with 200 mM imidazole (Fluka) in a buffer containing 50 mM NaH2PO4, pH 8, and 0.5 M NaCl. Protein concentration of the eluted fractions was measured with Pierce™ 660 nm protein assay reagent (Thermo Scientific).
(§2) Recombinant AAT assays with the enzyme solutions using different donor and acceptor substrates were performed by mixing 7 μl of the cannabinoid acceptors (OA, CBGA, or heliCBGA, 1 mg ml^−1) with 58 μl of a potassium phosphate buffer (100 mM, pH 7.4) and incubating the mixture at 30° C. for 10 min. Next, 5 μl of the acyl-CoA donors (butyryl-CoA, hexanoyl-CoA, iso-valeryl-CoA, or acetyl-CoA, 10 mM) and 30 μl of the enzyme solutions were added. The reactions were incubated at 30° C. for 3 h. To stop the reactions, 100 μl ethanol was added to each tube, vortexed for 10 s, centrifuged at maximum speed for 10 min, and then the supernatant was recovered and used for UPLC-qTOF analysis. The assay with the purified HuAAT5 enzyme was performed by mixing 2 μl of the cannabinoid acceptors (OA, CBGA, heliCBGA, CBDA, Δ^9-THCA or CBCA) with 2 μl of the acyl-CoA donors (butyryl-CoA, iso-butyryl-CoA, hexanoyl-CoA, iso-valeryl-CoA, or acetyl-CoA, 10 mM), 44 μl of a potassium phosphate buffer (100 mM, pH 7.4), and 2 μl of the purified HuAAT5 enzyme solution. The reactions were incubated at 30° C. for 3 h. To stop the reactions, 50 μl ethanol was added to each tube and the acylated compounds were extracted and analyzed as previously described.

TRPV3 ion channel = biological target: T1, TRPV3 ion channel (Homo sapiens, UniProt Q8NET8); conditions: cited from earlier work
T1 sequence (Q8NET8 1-790): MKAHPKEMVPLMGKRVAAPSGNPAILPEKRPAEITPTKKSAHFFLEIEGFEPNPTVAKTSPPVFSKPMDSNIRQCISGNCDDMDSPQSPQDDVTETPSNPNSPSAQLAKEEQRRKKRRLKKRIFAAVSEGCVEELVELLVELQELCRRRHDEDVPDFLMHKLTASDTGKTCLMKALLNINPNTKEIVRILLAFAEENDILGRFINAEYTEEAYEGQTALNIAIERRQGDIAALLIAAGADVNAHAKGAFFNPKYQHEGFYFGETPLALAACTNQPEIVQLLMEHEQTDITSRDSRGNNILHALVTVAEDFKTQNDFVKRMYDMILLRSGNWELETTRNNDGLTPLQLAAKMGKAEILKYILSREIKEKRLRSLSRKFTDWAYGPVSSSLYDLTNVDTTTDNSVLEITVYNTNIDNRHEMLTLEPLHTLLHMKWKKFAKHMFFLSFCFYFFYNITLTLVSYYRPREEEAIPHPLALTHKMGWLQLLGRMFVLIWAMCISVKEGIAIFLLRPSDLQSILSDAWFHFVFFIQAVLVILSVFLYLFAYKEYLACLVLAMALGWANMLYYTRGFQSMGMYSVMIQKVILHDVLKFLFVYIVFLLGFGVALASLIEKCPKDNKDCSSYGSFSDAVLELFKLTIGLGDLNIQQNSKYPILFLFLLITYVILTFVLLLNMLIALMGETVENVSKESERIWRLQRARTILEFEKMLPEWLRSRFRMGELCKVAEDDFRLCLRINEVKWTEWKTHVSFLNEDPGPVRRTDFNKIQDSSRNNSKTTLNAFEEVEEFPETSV

[1] = Activity of E. coli lysates containing recombinant HuAATs (AAT enzyme assay, UPLC-qTOF readout); format: biochemical, Helichrysum umbraculigerum; conditions: for acyltransferase activity of lysate towards the substrates: butyryl-CoA and hexanoyl-CoA as acyl donors, CBGA and heliCBGA as acceptors, 30° C., 3 h
Experimental: as §1
as §2, with “The assay with the purified HuAAT5 enzyme was performed by mixing 2 μl of the cannabinoid acceptors (OA, CBGA, heliCBGA, CBDA, Δ^9-THCA or CBCA) with 2 μl of the acyl-CoA donors (butyryl-CoA, iso-butyryl-CoA, hexanoyl-CoA, iso-valeryl-CoA, or acetyl-CoA, 10 mM), 44 μl of a potassium phosphate buffer (100 mM, pH 7.4), and 2 μl of the purified HuAAT5 enzyme solution. The reactions were incubated at 30° C. for 3 h.” left out

| Molecule | acylation of the cannabinoid acceptor by purified HuAAT5 (HuAAT5) | further results |
| --- | --- | --- |
| CCCCCc1cc2c(c(O)c1C(=O)O)[C@@H]1C=C(C)CC[C@H]1C(C)(C)O2 (relative stereo) [Δ^9-THCA, (−)-trans-Δ^9-tetrahydrocannabinolic acid] | inactive | – |
| CCCCCc1cc2c(c(O)c1C(=O)O)C=CC(C)(CCC=C(C)C)O2 (stereo not shown) [CBCA, cannabichromenic acid] | inactive | – |
| C=C(C)[C@@H]1CCC(C)=C[C@H]1c1c(O)cc(CCCCC)c(C(=O)O)c1O [CBDA, cannabidiolic acid] | successfully acylated | – |
| CCCCCc1cc(O)c(C/C=C(\C)CCC=C(C)C)c(O)c1C(=O)O [CBGA, cannabigerolic acid] | successfully acylated | – |
| CCC(C)C(=O)Oc1cc(CCc2ccccc2)cc(O)c1CC=C(C)C (stereo not shown) [O-methylbutyryl deprenylhelycannabigenol] | – | affinity for the ionotropic TRPV3 ion channel (TRPV3 ion channel): sub-micromolar |
| CCCCCc1cc(O)cc(O)c1C(=O)O [OA, Olivetolic acid] | successfully acylated | – |
| CC(C)=CCCC(C)=CCc1c(O)cc(CCc2ccccc2)c(C(=O)O)c1O [heliCBGA, helicannabigerolic acid] | successfully acylated | – |
| HuAAT5: BAHD alcohol acyltransferase from Helichrysum umbraculigerum, recombinantly expressed in E. coli, SEQ ID NO: 19 (protein, listed as Helichrysum umbraculigerum) MPSSSSSPSSTADSVTIISKCTVYPHMKNSTPESLQLSVSDLPMLSCQYIQKGVLLSQPPPNHTNNIISHLKLSLSKTLSHFPPLAGRLSTDSHGHVSIICNDSGVEFVHSTANHLHTHQILPLNSDVHPCFKTFFAFDKTLSYAGHHQPIAAVQVTELADGLFIGCTVNHAVVDGTSFWNFFNTFAEITKGCQKVTNLPDFSRENVFISPVVLPLPSGGPSATFSGDEPLRERIIHFSRDAILKMKFRANNPLWRQPQNSDLDDTEIYGKVCNDINGKVNGAFKPKSEISSFQSLCGQLWRAVTRARKFNDPIKTTTFRMAVNCRHRLDPKVDKLYFGNLIQSIPTVASVGELLSHDLSWAANELHQNVVAHDNATVRRGVKDWENNPKLFPLGNFDGAMITMGSSPRFPMYNNDFGWGRPMAVRSGKANKFDGKISAFPGRDGDGSVDLEVVLAPETMACLERDHEFMQYVS | – | amounts of products catalyzed, compared between the two active enzymes ([1]; HuAAT5 versus HuAAT14): considerably greater amounts of products; acyltransferase activity of lysate towards the substrates [1]: showed activity towards all of these substrates; also recorded: acylated the cannabinoids with both acyl-CoAs |
| HuAAT14: BAHD alcohol acyltransferase from Helichrysum umbraculigerum, recombinantly expressed in E. coli, SEQ ID NO: 30 (protein, listed as Helichrysum umbraculigerum) MGTIYQSPMIKSSTPKIIEDLKVIIHDTFTIFPPHETEKRSMFLSNIDQVLTFNVETVHFFAANPDFPPQVVAEKLKLALSKALVPYDFLAGRLKLNHESQRFEFDCNGAGARFVVGSSEFELGEIGDLVYPNPGFRQLVQKSYDNLELHEKPLCILQLTSFKCGGFALGVATNHATFDGLSFKTFLQNLGSLAADQPLAVDPCNDRHLLAARSPPKVQFDHPELLKIPTGTDIPNPTVFDCPESQLDFKIFNLTSDDIAHLKTKAKDGPGSTNAKITGFNVVAAHVWRCKALSSGSEYDPERVSTVLYAVDIRSRLNLPLSLAGNAVLSAYASAKCKEIEEGPLSRLVEMVTEGTNRMTGEYARSVIDWGEVNKGFPNGEFLISSWWRLGFADVEYPWGKPRYSCPVVYHRKDIILLFPDIVGADNNNEVNVLVALPGKEMEKFETLFHKFLA | – | acyltransferase activity of lysate towards the substrates [1]: showed activity towards all of these substrates; also recorded: acylated the cannabinoids with both acyl-CoAs |
